Results taken from PubChem BioAssay AID330 (DTP/NCI, 2004).
Values joined by “and” are separate entries in the source; they are usually repeats but may differ in a detail not shown here. Identical values can stand only once. Toxic doses and inconclusive results are not listed. How the source made its calls: active means survival T/C of 150% or more; inactive means T/C below 125% in these data.

Test system: P388 leukemia ip, CD2F1 mice, survival T/C
Experiment: NCI In Vivo Anticancer Drug Screen. Data for tumor model P388 Leukemia (intraperitoneal) in CD2F1 (CDF1) mice
Conditions: endpoint: median survival time, higher = longer survival
Method in brief: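 Mice carrying the transplanted tumor received test compound or vehicle. Survival was recorded in each group, and the value is the treated-group measurement divided by that of the vehicle-treated control group.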

[1] = dose: 50.0 mg/kg/injection, schedule: Q01DX009 (ip), vehicle: saline with Tween-80
[2] = dose: 100.0 mg/kg/injection, schedule: Q01DX009 (ip), vehicle: saline with Tween-80
[3] = dose: 200.0 mg/kg/injection, schedule: Q01DX009 (ip), vehicle: saline with Tween-80
[4] = dose: 60.0 mg/kg/injection, schedule: Q01DX005 (ip), vehicle: saline with Tween-80
[5] = dose: 120.0 mg/kg/injection, schedule: Q01DX005 (ip), vehicle: saline with Tween-80
[6] = dose: 12.5 mg/kg/injection, schedule: Q01DX009 (ip), vehicle: Klucel (hydroxypropylcellulose) (HPC)
[7] = dose: 25.0 mg/kg/injection, schedule: Q01DX009 (ip), vehicle: Klucel (hydroxypropylcellulose) (HPC)
[8] = dose: 240.0 mg/kg/injection, schedule: Q01DX005 (ip), vehicle: saline with Tween-80
[9] = dose: 25.0 mg/kg/injection, schedule: Q01DX009 (ip), vehicle: saline with Tween-80

Measured: T/C

O=C(NC(CCSSCCC(NC(=O)OCc1ccccc1)C(=O)O)C(=O)O)OCc1ccccc1 (stereo unspecified)
inactive: dose: 12.5 mg/kg/injection, schedule: Q01DX009 (ip), vehicle: other 98 % of control | dose: 25.0 mg/kg/injection, schedule: Q01DX009 (ip), vehicle: other 98 % of control | dose: 50.0 mg/kg/injection, schedule: Q01DX009 (ip), vehicle: other 101 % of control | dose: 100.0 mg/kg/injection, schedule: Q01DX009 (ip), vehicle: other 100 % of control | dose: 200.0 mg/kg/injection, schedule: Q01DX009 (ip), vehicle: other 103 % of control

Cc1ccc(NCCN(C)C)c2c(=O)c3cccc(O)c3sc12
inactive: [1] 100 % of control | [2] 95 % of control | [3] 97 % of control

CCCC1C(CC)C=C(CC)C(O)C1(CC)CO (stereo unspecified)
inactive: dose: 50.0 mg/kg/injection, schedule: Q01DX005 (ip), vehicle: saline with Tween-80 97 % of control | dose: 100.0 mg/kg/injection, schedule: Q01DX005 (ip), vehicle: saline with Tween-80 97 % of control | dose: 200.0 mg/kg/injection, schedule: Q01DX005 (ip), vehicle: saline with Tween-80 97 % of control

O=S(/N=C/c1ccccc1)c1ccc(Cl)cc1 (stereo unspecified)
inactive: [1] 96 % of control | [2] 89 % of control

Clc1ccc(N=NN2CCOC2)cc1
inactive: [4] 115 % of control | [5] 109 % of control

CCCCCCC(C/C=C\CCCCCCCC(=O)OC)OC(C)=O (stereo unspecified)
inactive: dose: 100.0 mg/kg/injection, schedule: Q04DX003 (ip), vehicle: saline with Tween-80 95 % of control | dose: 200.0 mg/kg/injection, schedule: Q04DX003 (ip), vehicle: saline with Tween-80 100 % of control | dose: 400.0 mg/kg/injection, schedule: Q04DX003 (ip), vehicle: saline with Tween-80 104 % of control

Cc1ccc(O)c(C(c2cc(C)ccc2O)c2ccccc2Cl)c1
inactive: [1] 108 % of control | [2] 108 % of control | [3] 103 % of control

Cc1cc(C(=O)O)ccc1S(=O)(=O)F
inactive: [4] 101 % of control | [5] 105 % of control

O=C1Nc2ccccc2C1NC(=S)Nc1ccccc1 (stereo unspecified)
inactive: [4] 96 % of control | [5] 94 % of control

COc1ccc([B-]23OCC[N+]2(CNC(=O)C2=C(O)C4(O)C(=O)C5=C(O)c6c(O)cccc6C(C)(O)C5CC4C(N(C)C)C2=O)CCO3)cc1 (stereo unspecified)
inactive: dose: 50.0 mg/kg/injection, schedule: Q01DX005 (ip), vehicle: Klucel (hydroxypropylcellulose) (HPC) 105 % of control | dose: 100.0 mg/kg/injection, schedule: Q01DX005 (ip), vehicle: Klucel (hydroxypropylcellulose) (HPC) 105 % of control | dose: 200.0 mg/kg/injection, schedule: Q01DX005 (ip), vehicle: Klucel (hydroxypropylcellulose) (HPC) 105 % of control

COc1ccc(O)c(C(c2cc(OC)ccc2O)c2cc(OC)ccc2O)c1
inactive: [1] 115 % of control | [2] 115 % of control | [3] 115 % of control

Nc1ncnc(Nc2ccc(C(F)(F)F)cc2)n1
inactive: [6] 118 % of control | [7] 107 % of control | dose: 50.0 mg/kg/injection, schedule: Q01DX009 (ip), vehicle: Klucel (hydroxypropylcellulose) (HPC) 93 % of control | dose: 100.0 mg/kg/injection, schedule: Q01DX009 (ip), vehicle: Klucel (hydroxypropylcellulose) (HPC) 87 % of control

COC(=O)NC1C(=O)OC(C2OC2(C)C)C1(C)C (stereo unspecified)
inactive: [4] 101 % of control and 100 % of control | [5] 101 % of control and 99 % of control | [8] 100 % of control and 99 % of control

[B-][N+]12CC[N+]([B-])(CC1)CC2
inactive: dose: 0.06 mg/kg/injection, schedule: Q04DX003 (ip), vehicle: other 100 % of control | dose: 0.13 mg/kg/injection, schedule: Q04DX003 (ip), vehicle: other 100 % of control | dose: 0.25 mg/kg/injection, schedule: Q04DX003 (ip), vehicle: other 100 % of control | dose: 15.6 micrograms/kg/injection, schedule: Q01DX009 (ip), vehicle: other 100 % of control | dose: 31.3 micrograms/kg/injection, schedule: Q01DX009 (ip), vehicle: other 100 % of control | dose: 62.5 micrograms/kg/injection, schedule: Q01DX009 (ip), vehicle: other 100 % of control | dose: 62.5 micrograms/kg/injection, schedule: Q01DX009 (ip), vehicle: saline 87 % of control | dose: 125.0 micrograms/kg/injection, schedule: Q01DX009 (ip), vehicle: saline 104 % of control

O=C(O)Cc1cccc(S(=O)(=O)F)c1
inactive: [4] 104 % of control | [5] 100 % of control

CC(C)=CC(=O)CC(O)(C(F)(F)F)C(F)(F)Cl (stereo unspecified)
inactive: [9] 109 % of control

CCCCCCCCCCCCOC(=O)c1ccc(Cl)cc1
inactive: [1] 87 % of control | [2] 102 % of control | [3] 104 % of control

Cc1ccc(-c2nc3scc(C)n3n2)cc1
inactive: dose: 60.0 mg/kg/injection, schedule: Q01DX005 (ip), vehicle: Klucel (hydroxypropylcellulose) (HPC) 100 % of control | dose: 120.0 mg/kg/injection, schedule: Q01DX005 (ip), vehicle: Klucel (hydroxypropylcellulose) (HPC) 96 % of control | dose: 240.0 mg/kg/injection, schedule: Q01DX005 (ip), vehicle: Klucel (hydroxypropylcellulose) (HPC) 103 % of control

CC1(C)CNC(=S)O1
inactive: dose: 6.25 mg/kg/injection, schedule: Q01DX009 (ip), vehicle: Klucel (hydroxypropylcellulose) (HPC) 107 % of control | [6] 100 % of control | [7] 88 % of control and 89 % of control

CCOC(=O)NC(=S)Nc1nonc1-c1ccccc1
inactive: [4] 96 % of control | [5] 100 % of control | [8] 97 % of control

C=C=C(COC(C)=O)ON1CCC(C)CC1
inactive: dose: 9.0 mg/kg/injection, schedule: Q01DX001 (ip), vehicle: saline 102 % of control | dose: 18.12 mg/kg/injection, schedule: Q01DX001 (ip), vehicle: saline 102 % of control | dose: 36.25 mg/kg/injection, schedule: Q01DX001 (ip), vehicle: saline 100 % of control

CC(C)(C)c1ccc(-c2cc3nc(C(F)(F)F)cc(=O)n3[nH]2)cc1
inactive: [4] 89 % of control | [5] 89 % of control | [8] 100 % of control

CNC(=O)OCc1c(COC(=O)NC)c(-c2ccco2)n2c1CCC2
inactive: dose: 3.75 mg/kg/injection, schedule: Q01DX005 (ip), vehicle: saline 100 % of control | dose: 7.5 mg/kg/injection, schedule: Q01DX005 (ip), vehicle: saline 101 % of control | dose: 15.0 mg/kg/injection, schedule: Q01DX005 (ip), vehicle: saline 120 % of control

CCCCCCCCCCCCCCCCCC[N+]1(CCCC)CCOCC1
inactive: dose: 12.5 mg/kg/injection, schedule: Q01DX009 (ip), vehicle: saline with Tween-80 102 % of control | [9] 108 % of control | [1] 101 % of control and 114 % of control

COc1ccc(C2=C(Cl)C(=O)N(c3ccc(OC)cc3)C(=O)C2(Cl)Cl)cc1
inactive: dose: 100.0 mg/kg/injection, schedule: Q04DX002 (ip), vehicle: Klucel (hydroxypropylcellulose) (HPC) 101 % of control | dose: 200.0 mg/kg/injection, schedule: Q04DX002 (ip), vehicle: Klucel (hydroxypropylcellulose) (HPC) 95 % of control | dose: 400.0 mg/kg/injection, schedule: Q04DX002 (ip), vehicle: Klucel (hydroxypropylcellulose) (HPC) 111 % of control

Nc1ccc(Nc2c3ccccc3nc3ccccc23)cc1
inactive: dose: 6.25 mg/kg/injection, schedule: Q04DX003 (ip), vehicle: saline 104 % of control | dose: 12.5 mg/kg/injection, schedule: Q04DX003 (ip), vehicle: saline 100 % of control | dose: 25.0 mg/kg/injection, schedule: Q04DX003 (ip), vehicle: saline 121 % of control

O=C(c1ccccc1)N1C2C=C(c3ccccc3)CC1CC2 (stereo unspecified)
inactive: dose: 100.0 mg/kg/injection, schedule: Q04DX003 (ip), vehicle: Klucel (hydroxypropylcellulose) (HPC) 111 % of control | dose: 200.0 mg/kg/injection, schedule: Q04DX003 (ip), vehicle: Klucel (hydroxypropylcellulose) (HPC) 97 % of control | dose: 400.0 mg/kg/injection, schedule: Q04DX003 (ip), vehicle: Klucel (hydroxypropylcellulose) (HPC) 94 % of control

[Cl][Al]([Cl])[Cl]
inactive: dose: 6.25 mg/kg/injection, schedule: Q01DX009 (ip), vehicle: saline 100 % of control | dose: 12.5 mg/kg/injection, schedule: Q01DX009 (ip), vehicle: saline sonified 100 % of control | dose: 12.5 mg/kg/injection, schedule: Q01DX009 (ip), vehicle: saline 100 % of control | dose: 25.0 mg/kg/injection, schedule: Q01DX009 (ip), vehicle: saline sonified 90 % of control | dose: 25.0 mg/kg/injection, schedule: Q01DX009 (ip), vehicle: saline 95 % of control | dose: 50.0 mg/kg/injection, schedule: Q01DX009 (ip), vehicle: saline sonified 95 % of control | dose: 100.0 mg/kg/injection, schedule: Q04DX003 (ip), vehicle: saline 90 % of control | dose: 200.0 mg/kg/injection, schedule: Q04DX003 (ip), vehicle: saline 95 % of control and 100 % of control | dose: 400.0 mg/kg/injection, schedule: Q04DX003 (ip), vehicle: saline 86 % of control
